What all share (format): cell-based, Saccharomyces cerevisiae
The subject of one experiment is BBC1. The experiment is described as follows: DHFR-PCA on solid medium, bait BBC1 (Fig. 1B). The note with it: bait BBC1, label = prey; for medrep (log2 median colony size normalized to plate background, PCA score): 2-4 replicates; for Ratio (SH3-deleted/WT medrep): only significant differences showed, PPIs completely lost have a ratio of 0.1 and the gained PPIs 2.5. The text has this:
(§1) Supplement 41467_2021_21873_MOESM8_ESM.xlsx, sheet "Fig1B" | column: medsize; medrep; Ratio; Score

The subject of the next experiment is ABP1. Description: DHFR-PCA on solid medium, bait ABP1 (Fig. 1B). The note with it: bait ABP1, label = prey; 2-4 replicates.
Excerpt: as §1

For experiment [1], the system named is 575 putative partners (preys) of 22 WT SH3-containing proteins. Description: DHFR-PCA on solid medium, WT and SH3-deleted baits (Fig. 1B). More on the design: key to Score: 0: SH3-independent; 1: SH3-dependent PPIs; 2: SH3-inhibited PPIs. The note with it: for medrep (log2 median colony size normalized to plate background, PCA score): label = prey; for Ratio (SH3-deleted/WT medrep): only significant differences shown, PPIs completely lost have a ratio of 0.1, gained PPIs 2.5. The source says:
To assess the requirement of SH3 domains for PPIs in vivo, we first measured binary interactions between 22 WT SH3-containing proteins (Supplementary Fig. 1A) as baits and 575 putative partners from their interconnected signaling networks using the dihydrofolate reductase protein–fragment complementation assay (DHFR-PCA) in the budding yeast Saccharomyces cerevisiae. About 33% (202/607) of the PPIs detected were described before, mostly by direct methods (Supplementary Fig. 1B, C)[11]. We repeated the experiments with baits in which the SH3s were individually replaced with a flexible linker by genome editing (SH3 domain deletion/stuffing, Fig. 1A). The stuffer DNA sequence ([…]) codes for a small flexible poly-Gly with Ser peptide ([…]) that is inspired by previous experiments[12],[13]. About a third of the SH3-containing protein interactome is qualitatively or quantitatively SH3-dependent (171 PPIs out of 607, Fig. 1B and Supplementary Fig. 1B, C). We validated the vast majority of the quantitative changes in low-throughput experiments and excluded that this is simply due to changes in protein abundance in most cases (Supplementary Fig. 1D–G). SH3-binding motifs[14] are more frequent in the SH3-dependent PPI partners when compared to sequences from random proteins, SH3-independent PPI partners or PPI partners that are stronger or gained following SH3 deletions (p values = 1.5 × 10^−17, 0.0038 and 2.1 × 10^−08, respectively; Mann–Whitney test, one-tailed, Fig. 1C). The changes we measure are therefore enriched for PPIs that depend on the direct interactions of the domains with the PPI partners.
The complete list of strains, primers, and gRNAs used in this study can be found in Supplementary Tables 1–3. All constructed yeast strains were validated by polymerase chain reaction (PCR) and confirmed by Sanger sequencing of the locus of interest. Bait strains for the DHFR-PCA experiments were constructed as follows. The genes of interest were fused at their genomic 3′ end by replacing the stop codon with a linker ([…]), the DHFR F[1,2] followed by a smaller linker (GGGGS), a 1× FLAG tag ([…]) and the NATMX4 resistance cassette via homologous recombination (all amplified from pAG25-DHFR[1,2]-linker-FLAG). The set of 615 prey strains (DHFR F[3] fusions in the BY4742 background) were retrieved from the Yeast Protein Interactome Collection[43] with the exception of 73 that were reconstructed (Supplementary Tables 1 and 2). Knockout strains were taken from the yeast knockout collection except for ABP1, BEM1, BZZ1, and SLA1, which were reconstructed by replacing the ORFs with the NATMX4 resistance cassette by homologous recombination in the BY4741 background.
Yeast SH3 domain genomic sequences were replaced by CRISPR–Cas9 genome editing. Each SH3 domain (as defined by the SMART database V8.0 except for Ysc84 SH3 (as defined by PROSITE), see Source Data for all SH3 sequences and Supplementary Table 1 for primers used) was specifically targeted by one gRNA[46]. Yeast competent cells were co-transformed with a pCAS plasmid (Addgene plasmid 60847[47]) expressing both the gRNA of interest and Streptococcus pyogenes Cas9[46] and a donor DNA sequence (stuffer) with 60 bp homology arms surrounding the SH3 DNA sequence. The Stuffer DNA was either PCR amplified or digested from a plasmid. The stuffer DNA sequence ([…]) codes for a small flexible linker ([…]) inspired by protein linkers used in structural biology[12],[13]. This type of linker is frequently used for fusing proteins without affecting the structure of the linked proteins.
The overall DHFR-PCA pipeline is based on Tarassov et al.[43] and the procedures have also been published as a visualized protocol. The screens were performed with robotically manipulated pin tools (BM5-SC1, S&P Robotics Inc.). First, the preys were cherry-picked from 96-well plates to omnitrays in a 384 format on YPD + HPH solid media. […]

[2] abbreviates: bait SLA1-2, DHFR-PCA, Replicates 4 (2 for YCR009C, YDR388W).
The mark [3] stands for this setting: bait SLA1-3, DHFR-PCA, Replicates 4 (2 for YCR009C, YDR388W, YIL033C).

Turning to “YDR388W (ETVTALYDYQAQAAGDLSFPAGAVIEIVQRTPDVNEWWTGRYNGQQGVFPGNYVQLNK)”, the “medrep (log2 median colony size normalized to plate background, PCA score)” value in the experiment with BBC1 worked out at 1.395; with ABP1, 4.711; in experiment [1] (setting [2]), 1.88; in experiment [1] (setting [3]) it was 1.88. Also, the “Ratio (SH3-deleted/WT medrep)” value in the experiment with BBC1 was 0.1; in experiment [1] (bait SLA1-2, label = prey) it was 0.1. Further, the Score in experiment [1] (bait SLA1-2, label = prey) stood at 1; in experiment [1] (bait SLA1-3, label = prey) it was 0.
On to YLR370C, for which the “medrep (log2 median colony size normalized to plate background, PCA score)” value in the experiment with BBC1 was 4.024; with ABP1 it was 5.077; in experiment [1] (setting [2]) it was 2.335; in experiment [1] (setting [3]) it was 4.537. For the same substance, the Score in experiment [1] (bait SLA1-2, label = prey) came out at 1; in experiment [1] (bait SLA1-3, label = prey), 0. The “Ratio (SH3-deleted/WT medrep)” value in experiment [1] (bait SLA1-2, label = prey) is on record as 0.5146.
YNL138W: the “medrep (log2 median colony size normalized to plate background, PCA score)” value in the experiment with BBC1 came to 2.102; in the experiment on ABP1 it was 5.358; in experiment [1] (setting [2]), 2.731; in experiment [1] (setting [3]) it was 2.731. For the same substance, the “Ratio (SH3-deleted/WT medrep)” value turned out to be 0.1 in the experiment with BBC1 and 0.1 in experiment [1] (bait SLA1-2, label = prey). Further, the Score in experiment [1] (bait SLA1-2, label = prey) stood at 1; in experiment [1] (bait SLA1-3, label = prey), 0.
As for YPR184W, the results for the “medrep (log2 median colony size normalized to plate background, PCA score)” value (in the experiment with ABP1; in experiment [1] (setting [2]); in experiment [1] (setting [3])) were 3.5, 2.1199 and 2.1199, respectively. Besides, the Score amounted to 1 in experiment [1] (bait SLA1-2, label = prey) and 0 in experiment [1] (bait SLA1-3, label = prey). The “Ratio (SH3-deleted/WT medrep)” value in experiment [1] (bait SLA1-2, label = prey) was determined as 0.1.
For the substance YER166W, the “medrep (log2 median colony size normalized to plate background, PCA score)” value is reported as 3.035 in the experiment on ABP1, 2.422 in experiment [1] (setting [2]) and 2.422 in experiment [1] (setting [3]). Also, the Score in experiment [1] (bait SLA1-2, label = prey) is listed as 1; in experiment [1] (bait SLA1-3, label = prey), 0. In addition, the “Ratio (SH3-deleted/WT medrep)” value in experiment [1] (bait SLA1-2, label = prey) is given as 0.1.
With “YHR016C (SATPTAVALYNFAGEQPGDLAFKKGDVITILKKSDSQNDWWTGRTNGKEGIFPANYVRVS)”, the “medrep (log2 median colony size normalized to plate background, PCA score)” value in the experiment with ABP1 is 4.9581; in experiment [1] (setting [2]), 1.614; in experiment [1] (setting [3]) it was 3.842. Also, the Score in experiment [1] (bait SLA1-2, label = prey) is on record as 1; in experiment [1] (bait SLA1-3, label = prey) it was 0. In addition, the “Ratio (SH3-deleted/WT medrep)” value in experiment [1] (bait SLA1-2, label = prey) came out at 0.4201.
Take “YFR024C-A (PKAVALYSFAGEESGDLPFRKGDVITILKKSDSQNDWWTGRVNGREGIFPANYVELV)”: the “medrep (log2 median colony size normalized to plate background, PCA score)” value with BBC1 stood at 1.926; with ABP1, 5.192; in experiment [1] (setting [3]), 4.788. In addition, the “Ratio (SH3-deleted/WT medrep)” value in the experiment with BBC1 is 0.1. Further, in experiment [1] (bait SLA1-3, label = prey), the Score turned out to be 0.
On to YIL062C, for which the “medrep (log2 median colony size normalized to plate background, PCA score)” value with BBC1 is 4.09; with ABP1 it was 5.265; in experiment [1] (setting [3]) it was 4.44. For the same substance, the Score in experiment [1] (bait SLA1-3, label = prey) is 0.
Take YOR181W: the “medrep (log2 median colony size normalized to plate background, PCA score)” value in the experiment on BBC1 worked out at 1.945; in the experiment with ABP1, 4.4673; in experiment [1] (setting [2]), 2.241; in experiment [1] (setting [3]), 4.865. Besides, the “Ratio (SH3-deleted/WT medrep)” value in the experiment with BBC1 amounted to 0.4732; in experiment [1] (bait SLA1-2, label = prey), 0.4606. The Score in experiment [1] (bait SLA1-2, label = prey) came out at 1; in experiment [1] (bait SLA1-3, label = prey), 0.

The values are drawn from paper PMC7954794, “Protein context shapes the specificity of SH3 domain-mediated interactions in vivo” (Nature Communications, 2021).
